ChEMBL document CHEMBL3044746, “Molecular modeling and pharmacophore approach for structural requirements of some 2-substituted-1-naphthols derivatives as potent 5-lipoxygenase inhibitors” (Med Chem Res, 2013)

Target: T1, Polyunsaturated fatty acid 5-lipoxygenase (Rattus norvegicus, UniProt P12527)
T1 sequence (P12527 whole entry): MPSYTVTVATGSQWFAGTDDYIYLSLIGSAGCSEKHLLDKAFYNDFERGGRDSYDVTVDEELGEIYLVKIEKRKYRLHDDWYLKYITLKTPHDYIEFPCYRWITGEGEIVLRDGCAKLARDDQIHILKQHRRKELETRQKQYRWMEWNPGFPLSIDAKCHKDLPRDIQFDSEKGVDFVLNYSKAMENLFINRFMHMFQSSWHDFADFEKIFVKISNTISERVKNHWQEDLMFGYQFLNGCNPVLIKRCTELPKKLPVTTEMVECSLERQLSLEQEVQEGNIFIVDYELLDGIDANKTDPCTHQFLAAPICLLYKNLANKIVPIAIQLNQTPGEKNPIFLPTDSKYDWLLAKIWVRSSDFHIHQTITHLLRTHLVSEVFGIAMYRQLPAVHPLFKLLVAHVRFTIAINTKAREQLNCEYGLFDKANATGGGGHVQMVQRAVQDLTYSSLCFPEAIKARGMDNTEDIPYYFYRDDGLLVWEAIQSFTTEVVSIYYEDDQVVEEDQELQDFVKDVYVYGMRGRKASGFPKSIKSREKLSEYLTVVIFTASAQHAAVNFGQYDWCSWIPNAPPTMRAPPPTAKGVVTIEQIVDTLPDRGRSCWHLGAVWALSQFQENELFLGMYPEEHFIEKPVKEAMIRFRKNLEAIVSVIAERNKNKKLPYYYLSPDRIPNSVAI
Test: Inhibition of 5-lipoxygenase in Rattus norvegicus Rat basophil leukemia cells (RBL) cells

IC50 | SMILES
57 nM | CCOc1ccccc1Cc1ccc2ccccc2c1O
160 nM | Oc1c(/C=C/c2ccccc2)ccc2ccccc12
180 nM | CCc1ccc2ccccc2c1O
160 nM | O=C(Oc1ccccc1)c1cc(Cc2ccccc2)c(O)c2ccccc12
